A short description of data set [1]: Crystalline form screening: anti-solvent crystallization. The data set is classed as physicochemical. The note with it: 25 - 5 °C. An excerpt:
The operation process of anti-solvent crystallization was to dissolve a certain amount of the crystalline form A of the compound of formula (I) in a positive solvent to obtain a solution of the raw material drug, slowly add the raw material drug solution to the anti-solvent at a certain temperature, and filter out any solid precipitation for analysis. Table 8. Anti-solvent crystallization

The nature of data set [2]: Solid stability test at high temperature and high humidity (XRPD). The data set is classed as physicochemical. Here is the method: According to the "Guidelines for Stability Testing of APIs and Preparations" (Chinese Pharmacopoeia 2020 Edition, Part IV, General Rules 9001), the stabiilty of the crystalline form A of compound of formula (I) and the crystalline form B of compound of formula (II) was investigated at high temperature and high humidity (40°C/75%RH, open) (60°C/75%RH, open) conditions.
Weigh 10-30 mg of the crystalline form A of the formula (I) and the crystalline form B of the compound of formula (II), place them at the bottom of a glass sample bottle, and spread them into a thin layer. The samples were placed open to ensure that the samples were fully in contact with the ambient air. The samples placed under different conditions were sampled and tested (XRPD) on the 10th day, 30th day, and 60th day, and the test results were compared with the initial test results on day 0. Stability test results of the crystalline form of compound A of formula (I) and the crystalline form B of compound of formula (II)

Data set [3] is described as follows: Pharmacokinetic study of oral administration in male beagle dogs. The data set is classed as in vivo. Here is the method: Oral administration group: Weigh an appropriate amount of the test compound (calculated in free form), dissolve it in a 0.5% MC aqueous solution, vortex and sonicate for 10 min until the compound was milky white and uniformly suspended, and prepare a 1.0 mg/mL uniform suspension solution for use. Male beagle dogs weighing about 11 kg were selected and orally administered with the test compound. Sample collection time was: 0.083, 0.25, 0.5, 1, 2, 4, 6, 8, and 24 hours.
1 mL of whole blood was collected from the forelimb vein to prepare plasma for concentration determination by high performance liquid chromatography - tandem mass spectrometry (LC-MS/MS). The non-compartmental model of WinNonlin 8.2.0 (Pharsight, Mountain View, CA), pharmacokinetic software, was used to process plasma concentrations, and the linear logarithmic trapezoidal method was used to calculate pharmacokinetic parameters. Pharmacokinetic study results of crystalline form A, crystalline form B and crystalline form C

Data set [4] in a line: Crystalline form screening: cooling crystallization. Format: physicochemical. The note with it: 50-25 °C. An excerpt: The cooling crystallization operation process was to dissolve a certain amount of the crystalline form A of the compound of formula (I) in a certain amount of solvent at high temperature, stir at high temperature for a period of time, and then cool to a lower temperature at a certain cooling rate. If solid precipitates after cooling to a low temperature, filter it out for solid state analysis. Table 7. Cooling crystallization

Data set [5] is described as follows: Hygroscopicity study by Dynamic Vapor Sorption (DVS). Format: physicochemical. The note with it: for Hygroscopicity classification: 25°C and 80% RH; for ΔW: weight gain at 25°C, humidity 80 % RH. Here is the method: • Instrument model: SMS DVS Intrinsic Dynamic Vapor Sorption Instrument • Test conditions: Take a sample (10 ~ 30 mg) and place it in the DVS sample pan for testing.
Hygroscopicity classification
10-30 mg of the crystalline form A of the compound of formula (I) was placed in a DVS sample tray for testing.
10-30 mg of the crystalline form B of the compound of formula (II) was placed in a DVS sample tray for testing.
10-30 mg of the crystalline form C of the compound of formula (III) was placed in a DVS sample tray for testing.

The nature of data set [6]: Crystalline form screening: suspension crystallization. The data set is classed as physicochemical. The following applies: for Result (crystal form): 50 °C, suspension. An excerpt:
The operation process of suspension crystallization was to weigh a certain amount of the crystalline form A of the compound of formula (I), add a certain amount of solvent, maintain the system in a state of suspension and stir at a certain temperature, and filter out the solid for analysis after a period of time. Table 6. Suspension crystallization

For data set [7], the target named is T1, human PLK1 protein kinase (Homo sapiens, UniProt P53350).
T1 construct: purchased Reaction Biology Corp
T1 sequence (P53350 whole entry): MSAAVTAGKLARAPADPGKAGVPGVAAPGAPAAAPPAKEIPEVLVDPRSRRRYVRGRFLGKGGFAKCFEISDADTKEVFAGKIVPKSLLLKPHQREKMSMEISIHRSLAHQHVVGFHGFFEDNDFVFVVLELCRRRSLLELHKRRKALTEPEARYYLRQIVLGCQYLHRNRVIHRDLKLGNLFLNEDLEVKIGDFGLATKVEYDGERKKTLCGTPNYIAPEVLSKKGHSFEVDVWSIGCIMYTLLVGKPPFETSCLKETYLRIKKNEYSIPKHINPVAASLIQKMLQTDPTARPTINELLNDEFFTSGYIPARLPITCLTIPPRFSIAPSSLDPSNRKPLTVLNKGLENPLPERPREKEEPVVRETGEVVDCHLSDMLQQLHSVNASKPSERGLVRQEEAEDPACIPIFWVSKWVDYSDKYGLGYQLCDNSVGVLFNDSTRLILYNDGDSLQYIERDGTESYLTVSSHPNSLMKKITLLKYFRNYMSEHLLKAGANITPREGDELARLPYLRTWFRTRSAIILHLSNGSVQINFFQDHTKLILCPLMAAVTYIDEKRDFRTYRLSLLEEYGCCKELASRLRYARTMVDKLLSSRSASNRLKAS
In words: 33P isotope-labeled PLK1 kinase activity assay in vitro. Format: biochemical. Here is the method: The IC50 value was determined using ^33P isotope-labeled kinase activity assay (Reaction Biology Corp) to evaluate the inhibitory ability of the test compounds on human PLK1 protein kinase.
Buffer conditions: 20 mM HEPES (pH 7.5), 10 mM MgCl2, 1 mM EGTA, 0.01% Brij35, 0.02 mg/ml BSA, 0.1 mM Na3VO4, 2 mM DTT, 1% DMSO
Test steps: Dissolve the test compound in DMSO at room temperature to prepare a 10 mM solution for use. Dissolve the substrate Casein in a freshly prepared buffer (final concentration 20 µM), add the tested PLK1 kinase (final concentration 12 nM) and mix well. Add the DMSO-dissolved test compound stock solution to the above mixed reaction solution using the acoustic pipetting system Echo 550 according to the set final concentration gradient (highest final concentration was 1 µM, 3-fold dilution, 10 gradients). After incubation at room temperature for 20 minutes, add ^33 P-ATP (final concentration 0.01 µCi/µL), incubate at room temperature for 120 minutes, and then spot the reaction solution on P81 ion exchange filter paper (Whatman # 3698-915). After repeatedly washing the filter paper with 0.75% phosphoric acid solution, the level of residual radioactive phosphorylated substrate on the filter paper was determined. % kinase activity = kinase activity test compound/ kinase activity blank group (DMSO) × 100%. […]

Where [8] appears, read: dog, 5 mg/kg, PO, 5.0 mpk (calculated in free state), 0.5% MC aqueous suspension, plasma.
The mark [9] stands for this setting: dog, plasma, po, 5 mg/kg, 5.0 mpk (calculated in free state), 0.5% MC aqueous suspension.
Setting [10] is: listed as crystalline form C of the compound of formula (III).

For the compound `CSc1sc(C(N)=O)c2c1-c1nc(Nc3cc(N4CCN(C)CC4)ccc3OC(F)(F)F)ncc1CC2` [listing 1 of 3 here], the “Result (crystal form)” value in data set [1] (Condition 1: solvent THF, antisolvent H2O, 2.0+4.0 mL) was “crystal form A”; in data set [1] (Condition 2: solvent THF, antisolvent IPA, 2.0+6 0. mL), “crystal form A”; in data set [1] (Condition 3: solvent THF, antisolvent Tol, 2.0+4.0 mL), “crystal form A”; in data set [1] (Condition 4: solvent DCM, antisolvent ACN, 4.0 mL), “crystal form A”; in data set [1] (Condition 5: solvent DCM, antisolvent MTBE, 4.0 mL) it was “crystal form A”; in data set [1] (Condition 6: solvent DMSO, antisolvent EtOAc, 0.6+8.0 mL), “crystal form A”. Moreover, the “Result (crystal form)” value in data set [4] (Condition 1: Tetrahydrofuran 1.0 mL), in data set [4] (Condition 2: 2- methyl - tetrahydrofuran 5.0 mL), in data set [6] (Condition 1: Acetonitrile 2.0 mL), in data set [6] (Condition 2: Ethyl acetate 2.0 mL), in data set [6] (Condition 3: Toluene 2.0 mL) and in data set [6] (Condition 4: Butanone 1.0 mL) was “crystal form A” in each case. In addition, the Crystal form result in data set [2] (40 °C /75%RH, open, 10 days) is “crystal form A”; in data set [2] (40 °C /75%RH, open, 30 days), “crystal form A”; in data set [2] (40 °C /75%RH, open, 60 days), “crystal form A”; in data set [2] (60 °C /75%RH, open, 10 days) it was “crystal form A”; in data set [2] (60 °C /75%RH, open, 30 days), “crystal form A”; in data set [2] (60 °C /75%RH, open, 60 days), “crystal form A”. The Crystal form entry in data set [2] (Initial sample, Day 0) is on record as “crystal form A”. In addition, the “stability under high temperature and high humidity conditions” value in data set [2] (conclusion) is listed as “good stability”. In addition, the “absorption after oral administration” value in data set [3] (conclusion) is “well absorbed”. Moreover, in data set [3] (setting [8]), the AUC(0-t) (as a rule, exposure summed from dosing to a finite time, without extrapolation to infinity) was 0.907 µM·h. In data set [3] (setting [8]), the Cmax (in general, the maximum level reached in the sampled fluid or tissue) is 106 nM. Moreover, in data set [3] (setting [8]), the Tmax (usually the time from dosing to the highest level) is 3 h. For the same compound, the half-life – broadly, the time in which the quantity being followed falls by half – in data set [3] (setting [8]) was 4.6 h. The Hygroscopicity classification entry in data set [5] is given as “not hygroscopic”. Further, the ΔW in data set [5] was determined as 0.1671%. Further, in data set [6] (conclusion over suspension, cooling and anti-solvent crystallization), the “stability in different solvents and at different temperatures” value was “good stability”. Further, the “inhibitory activity against PLK1” value in data set [7] (conclusion) was “good inhibitory activity”. For the same compound, half-maximal inhibition in data set [7] (substrate Casein 20 µM, PLK1 12 nM, 33P-ATP, 120 minutes at room temperature) (IC50) required 2.48 nM.
As to `CSc1sc(C(N)=O)c2c1-c1nc(Nc3cc(N4CCN(C)CC4)ccc3OC(F)(F)F)ncc1CC2` [listing 2 of 3 here], in data set [2] (40 °C /75%RH, open, 10 days, listed as Crystalline Form B of Compound of Formula (II)), the Crystal form result is reported as “crystal form B”. Moreover, the Crystal form entry in data set [2] (60 °C /75%RH, open, 10 days, listed as Crystalline Form B of Compound of Formula (II)) was “crystal form B”. For the same compound, in data set [2] (Initial sample, Day 0, listed as Crystalline Form B of Compound of Formula (II)), the Crystal form entry is “crystal form B”. In data set [3] (setting [9]), the AUC(0-t) at 24 h is 1.11 µM·h, the Cmax was 123 nM, the Tmax is 4 h and the half-life is 5 h. In data set [5] (listed as crystalline form B of the compound of formula (II)), the Hygroscopicity classification entry is listed as “hygroscopic”. Further, in data set [5] (listed as crystalline form B of compound (II)), the ΔW is 2.078%.
Take `CSc1sc(C(N)=O)c2c1-c1nc(Nc3cc(N4CCN(C)CC4)ccc3OC(F)(F)F)ncc1CC2` [listing 3 of 3 here]: in data set [3] (setting [8]), the AUC(0-t) at 24 h was 1.59 µM·h, the Cmax was 132 nM, the Tmax is 6 h and the half-life was 4 h. Moreover, in data set [5] (setting [10]), the Hygroscopicity classification result is recorded as “hygroscopic” and the ΔW turned out to be 2.919%.

(Values after patent publication EP4570803A1, “SALT FORM AND CRYSTAL FORM OF 5,6-DIHYDROTHIENO[3,4-H]QUINAZOLINE COMPOUND AND PREPARATION METHOD THEREFOR” (NovaOnco JS Therapeutics Co., Ltd., priority 2022, dated 2024).)
